Values quoted from earlier work as cited in patent publication US9102697B2, “Trioxacarcins and uses thereof” (President and Fellows of Harvard College, priority 2010, dated 2015).

What was measured:
[1] = test system: murine models; conditions: cited from earlier work
[2] = test system: gram-positive; conditions: cited from earlier work
[3] = test system: LXFL 529L; conditions: lung cancer cell line LXFL 529L; cited from earlier work
[4] = test system: H-460; conditions: lung cancer cell line H-460; cited from earlier work
[5] = test system: SF-268; conditions: CNS cancer cell line SF-268; cited from earlier work
[6] = test system: MCF-7; conditions: mammary cancer cell line MCF-7; cited from earlier work
[7] = test system: self-complementary DNA 12-mer d(AATTACGTAATT) (SEQ ID NO: 1); conditions: epoxide opening by N7 of the central guanine residue; cited from earlier work

Compound | anti-tumor activity [1] | antibiotic activity [2] | IC70 [3] | IC70 [4] | IC70 [5] | IC70 [6] | reaction with the oligonucleotide [7]
COc1c2c(c(O)c3c4c(c(C)cc13)C1OC3(C(OC)OC)OC1C(O[C@H]1C[C@@H](O)[C@@](O)(C(C)=O)[C@H](C)O1)(O4)C3(O)CO)C(=O)C(O)CC2O[C@H]1C[C@@](C)(O)[C@H](OC(C)=O)[C@H](C)O1 (some centres unmarked) [Trioxacarcin B] | anti-tumor activity | gram-positive antibiotic activity | – | – | – | – | –
COc1c2c(c(O)c3c4c(c(C)cc13)C1OC3(C(OC)OC)OC1C(OC1CC(O)C(O)(C(C)O)C(C)O1)(O4)C31CO1)C(=O)C(O)CC2OC1COC(C)(OC(C)=O)C(C)(O)C1 (centres unmarked) [Trioxacarcin C] | anti-tumor activity | gram-positive antibiotic activity | – | – | – | – | –
Trioxacarcin A | anti-tumor activity | gram-positive antibiotic activity | subnanmolar | subnanmolar | subnanmolar | subnanmolar | form a covalent complex
